Assays:
[1] = cited from earlier work
[2] = In vitro screening of absorption (PAMPA experiments); assay type: in vitro ADME
Method: The permeability of ibandronate (as a control sample) and samples 1-3, 6 and 7 was tested. To retain interactions of both components in the solution it is recommended to increase the concentration of the counterion in the applied mixture. Therefore samples 1-3, 6 and 7 with the addition of sixfold quantity of phenyl-β-D-galactopyranoside to the co-crystal solution were also evaluated.
The permeability of generated co-crystals was evaluated in vitro, using a vertical PAMPA (Parallel Artificial Membrane Permeability Assay) system (BD GentestTMPre-Coated PAMPA Plate System, 96 wells, http://www.bdbeurope.com). The donor samples were prepared by dissolving the tested potential co-crystals in 0.01 M HCl, and than pH was adjusted by bicarbonate buffer to pH 7.4. The control sample was prepared in the same manner from ibandronate standards. A carbonate buffer saline (physiological solution) with pH 7.4 was used as a receptor phase. About 0.5 h before the experiment the PAMPA system was taken out from the freezer and warmed up to the ambient temperature. The receptor phase (200 μL/well) was pipetted into the upper wells. The donor phase was pipetted into the lower ones (300 μL/well). After the incubation time (5 h) 10 μL of the acceptor phase was taken from each well and mixed with physiological solution (990 μL). At least five determinations were performed. […]

CCCCCN(C)CCC(O)(P(=O)([O-])O)P(=O)(O)O.[Na+] [IBN monosodium salt, sodium hydrogen {1-hydroxy-3-[methyl(pentyl)amino]-1-phosphonopropyl}phosphonate]
Solubility in organic solvents ([1]; organic solvents): practically insoluble | Solubility in water ([1]; water): freely soluble | Absorption in PAMPA (in words, relative to ibandronate control) ([2]; PAMPA, pH 7.4, 5 h): highest absorption | Concentration in acceptor solutions of PAMPA plates, Conc. ([2]; donor and receptor phase pH 7.4, incubation 5 h, calculated from 5 experiments, samples 1a-7a with sixfold quantity of phenyl-β-D-galactopyranoside added to the co-crystal solution): 2400 ng/mL
